Experimental data taken from patent publication US10619138B2, “Herbicide-resistant hydroxyphenylpyruvate dioxygenases” (BASF SE, priority 2013, dated 2020).

Key:
[1] = biological target: T1, Arabidopsis HPPD (SEQ ID NO: 42) (Arabidopsis thaliana, UniProt P93836); assay: In vitro HPPD activity assay (HGA by HPLC), wildtype enzyme characterization; assay type: biochemical; details: normalized on Arabidopsis wild-type HPPD; reference enzyme
T1 construct: Arabidopsis (42); His tag; made in house; host or cells: E. coli BL21 (DE3)
T1 sequence (P93836 1-445): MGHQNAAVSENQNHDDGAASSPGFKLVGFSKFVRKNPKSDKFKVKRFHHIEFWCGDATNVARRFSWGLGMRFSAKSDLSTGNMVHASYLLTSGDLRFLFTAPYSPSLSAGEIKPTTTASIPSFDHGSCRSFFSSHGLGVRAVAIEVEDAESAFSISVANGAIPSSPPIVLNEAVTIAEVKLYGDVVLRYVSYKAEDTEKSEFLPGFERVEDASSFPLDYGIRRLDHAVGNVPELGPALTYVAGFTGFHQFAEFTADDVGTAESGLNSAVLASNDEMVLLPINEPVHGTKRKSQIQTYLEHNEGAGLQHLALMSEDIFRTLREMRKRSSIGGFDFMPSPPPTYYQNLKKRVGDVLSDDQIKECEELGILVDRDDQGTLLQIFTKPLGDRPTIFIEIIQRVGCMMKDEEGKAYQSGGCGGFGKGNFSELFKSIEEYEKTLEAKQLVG
Method: (§1) The activity assay for HPPD is based on the analysis of homogentisic acid by reversed phase HPLC.
(§2) The assay mixture can contain 150 mM potassium phosphate buffer pH 7.0, 50 mM L-ascorbic acid, 100 μM Catalase (Sigma-Aldrich), 1 μM FeSO4 and 0.2 units of purified HPPD enzyme in a total volume of 505 μl. 1 unit is defined as the amount of enzyme that is required to produce 1 nmol of HGA per minute at 20° C.
(§3) The reaction is allowed to proceed for 45 min at room temperature. The reaction is stopped by the addition of 50 μl of 4.5 M phosphoric acid. The sample is filtered using a […] pore size PVDF filtration device.
(§4) 5 μl of the cleared sample is analyzed on an UPLC HSS T3 column (particle size 1.8 μm, dimensions 2.1×50 mm; Waters) by isocratic elution using 90% 20 mM NaH2PO4 pH 2.2, 10% methanol (v/v).
(§5) HGA is detected electrochemically at 750 mV (mode: DC; polarity: positive) and quantified by integrating peak areas (Empower software; Waters).
Inhibitors are dissolved in DMSO (dimethylsulfoxide) to a concentration of 0.5 mM. From this stock solution serial five-fold dilutions are prepared in DMSO, which are used in the assay. The respective inhibitor solution accounts for 1% of the assay volume. […] Activities are normalized by setting the uninhibited enzyme activity to 100%. IC50 values are calculated using non-linear regression.
(§6) Using methods which are described in the above examples or well known in the art, purified, recombinant wildtype HPPD enzymes are characterized with respect to their kinetic properties and sensitivity towards HPPD inhibiting herbicides. Apparent michaelis constants (Km) and maximal reaction velocities (Vmax) are calculated by non-linear regression with the software GraphPad Prism 5 (GraphPad Software, La Jolla, USA) using a substrate inhibition model. […] Weighted means (by standard error) of Km and IC50 values are calculated from at least three independent experiments.
(§7) Field performance of the HPPD enzyme, which is used as a herbicide tolerance trait may depend not only on its lack of sensitivity towards HPPD inhibiting herbicides but also on its activity. To assess the potential performance of a herbicide tolerance trait a tolerance index (TI) is calculated using the following formula: […]
(§8) Easy comparison and ranking of each trait is enabled by normalizing tolerance indexes on Arabidopsis wild-type HPPD.

[2] = system: Algoriphagus HPPD (SEQ ID NO: 22); assay: In vitro HPPD activity assay, tolerance index; assay type: biochemical, Algoriphagus machipongonensis; details: normalized on Arabidopsis wild-type HPPD
Method: as §1, §2, §3, §4, §5
(§9) Inhibitors are dissolved in DMSO (dimethylsulfoxide) to a concentration of 0.5 mM. From this stock solution serial five-fold dilutions are prepared in DMSO, which are used in the assay. The respective inhibitor solution accounts for 1% of the assay volume. Thus, final inhibitor concentrations range from 5 μM to 320 pM, respectively. Activities are normalized by setting the uninhibited enzyme activity to 100%. IC50 values are calculated using non-linear regression.
as §6, with “experiments. The Cheng-Prusoff equation for competitive inhibition (Cheng, Y. C.; Prusoff, W. H. Biochem Pharmacol 1973, 22, 3099-3108) is used to calculate dissociation constants (Ki).” for “experiments.”
as §7, §8

[3] = system: Belliella HPPD (SEQ ID NO: 12); assay: In vitro HPPD activity assay, tolerance index; assay type: biochemical, Belliella baltica; details: normalized on Arabidopsis wild-type HPPD
Method: as §1, §2, §3, §4, §5, §9
as §6, with “experiments. The Cheng-Prusoff equation for competitive inhibition (Cheng, Y. C.; Prusoff, W. H. Biochem Pharmacol 1973, 22, 3099-3108) is used to calculate dissociation constants (Ki).” for “experiments.”
as §7, §8

[4] = system: Geodermatophilus HPPD (SEQ ID NO: 32); assay: In vitro HPPD activity assay, tolerance index; assay type: biochemical, Geodermatophilus obscurus; details: normalized on Arabidopsis wild-type HPPD
Method: as §1, §2, §3, §4, §5, §9
as §6, with “experiments. The Cheng-Prusoff equation for competitive inhibition (Cheng, Y. C.; Prusoff, W. H. Biochem Pharmacol 1973, 22, 3099-3108) is used to calculate dissociation constants (Ki).” for “experiments.”
as §7, §8

[5] = system: Herpetosiphon HPPD (SEQ ID NO: 26); assay: In vitro HPPD activity assay, tolerance index; assay type: biochemical, Herpetosiphon aurantiacus; details: normalized on Arabidopsis wild-type HPPD
Method: as §1, §2, §3, §4, §5, §9
as §6, with “experiments. The Cheng-Prusoff equation for competitive inhibition (Cheng, Y. C.; Prusoff, W. H. Biochem Pharmacol 1973, 22, 3099-3108) is used to calculate dissociation constants (Ki).” for “experiments.”
as §7, §8

[6] = system: Mucilaginibacter HPPD (SEQ ID NO: 28); assay: In vitro HPPD activity assay, tolerance index; assay type: biochemical, Mucilaginibacter paludis; details: normalized on Arabidopsis wild-type HPPD
Method: as §1, §2, §3, §4, §5, §9
as §6, with “experiments. The Cheng-Prusoff equation for competitive inhibition (Cheng, Y. C.; Prusoff, W. H. Biochem Pharmacol 1973, 22, 3099-3108) is used to calculate dissociation constants (Ki).” for “experiments.”
as §7, §8

[7] = system: Microscilla HPPD (SEQ ID NO: 20); assay: In vitro HPPD activity assay, tolerance index; assay type: biochemical, Microscilla marina; details: normalized on Arabidopsis wild-type HPPD
Method: as §1, §2, §3, §4, §5, §9
as §6, with “experiments. The Cheng-Prusoff equation for competitive inhibition (Cheng, Y. C.; Prusoff, W. H. Biochem Pharmacol 1973, 22, 3099-3108) is used to calculate dissociation constants (Ki).” for “experiments.”
as §7, §8

[8] = system: Nitritalea HPPD (SEQ ID NO: 14); assay: In vitro HPPD activity assay, tolerance index; assay type: biochemical, Nitritalea halalkaliphila; details: normalized on Arabidopsis wild-type HPPD
Method: as §1, §2, §3, §4, §5, §9
as §6, with “experiments. The Cheng-Prusoff equation for competitive inhibition (Cheng, Y. C.; Prusoff, W. H. Biochem Pharmacol 1973, 22, 3099-3108) is used to calculate dissociation constants (Ki).” for “experiments.”
as §7, §8

[9] = system: Pontibacter HPPD (SEQ ID NO: 16); assay: In vitro HPPD activity assay, tolerance index; assay type: biochemical, Pontibacter sp.; details: normalized on Arabidopsis wild-type HPPD
Method: as §1, §2, §3, §4, §5, §9
as §6, with “experiments. The Cheng-Prusoff equation for competitive inhibition (Cheng, Y. C.; Prusoff, W. H. Biochem Pharmacol 1973, 22, 3099-3108) is used to calculate dissociation constants (Ki).” for “experiments.”
as §7, §8

[10] = system: Scenedesmus HPPD (SEQ ID NO: 4); assay: In vitro HPPD activity assay, tolerance index; assay type: biochemical, Scenedesmus obliquus; details: normalized on Arabidopsis wild-type HPPD
Method: as §1, §2, §3, §4, §5, §9
as §6, with “experiments. The Cheng-Prusoff equation for competitive inhibition (Cheng, Y. C.; Prusoff, W. H. Biochem Pharmacol 1973, 22, 3099-3108) is used to calculate dissociation constants (Ki).” for “experiments.”
as §7, §8

Row | Compound | TI (normalized tolerance index) [1] | TI (normalized tolerance index) [2] | TI (normalized tolerance index) [3] | TI (normalized tolerance index) [4] | TI (normalized tolerance index) [5] | TI (normalized tolerance index) [6] | TI (normalized tolerance index) [7] | TI (normalized tolerance index) [8] | TI (normalized tolerance index) [9] | TI (normalized tolerance index) [10]
1 | COCCOCc1nc(C(F)(F)F)ccc1C(=O)C1=C(O)C2CCC(C2)C1=O (centres unmarked) [Inhibitor 3, 2-hydroxy-3-[2-(2-methoxyethoxymethyl)-6-(trifluoromethyl)pyridine-3-carbonyl]bicyclo[3.2.1]oct-2-en-4-one] | 1 | 29 | 10 | 7.4 | 2 | 6.9 | 6.7 | 1.1 | 1.7 | 0.9
2 | CCS(=O)(=O)c1cc(C(F)(F)F)ccc1C1=C(O)c2ncccc2C(C)(C)S1(=O)=O [Inhibitor 5, 7-[2-ethylsulfonyl-4-(trifluoromethyl)phenyl]-5,5-dimethyl-6,6-dioxo-thiopyrano[4,3-b]pyridin-8-ol] | 1 | 24.7 | 10.6 | 5.6 | 1 | 5.2 | 17.7 | 3.2 | 2.5 | 0.6
3 | CC(=O)N(C)c1c(Cl)ccc(C2=C(O)c3ncccc3C(C)(C)S2(=O)=O)c1Cl [Inhibitor 6, N-[2,6-dichloro-3-(8-hydroxy-5,5-dimethyl-6,6-dioxo-thiopyrano[4,3-b]pyridin-7-yl)phenyl]-N-methyl-acetamide] | 1 | 29.7 | 7.6 | 3.4 | 1.2 | 3.1 | 14.7 |  | 1.5 | 0.3
